{"source": "ChEMBL document CHEMBL1687752", "about": "“Impact of antifungal prophylaxis on colonization and azole susceptibility of Candida species” (2009)"}
{"system": "Nakaseomyces glabratus", "test": "Antifungal activity against 31 days cultured Candida glabrata isolated from HSCT recipient with acute or chronic GVHD mouth receiving antifungal therapy for 31 days after 28 days of prophylaxis by broth microdilution method", "type": "functional", "details": "not given", "units": {"MIC": "µg/mL"}}
{"smiles": "CCC(C)n1ncn(-c2ccc(N3CCN(c4ccc(OCC5COC(Cn6cncn6)(c6ccc(Cl)cc6Cl)O5)cc4)CC3)cc2)c1=O", "note": "(centres undefined) [ITRACONAZOLE]", "MIC": "< 1"}
{"system": "Nakaseomyces glabratus", "test": "Antifungal activity against Candida glabrata isolated from HSCT recipients with acute or chronic GVHD prior to initiation of fluconazole therapy assessed as maximum MIC by broth microdilution method", "type": "functional", "details": "not given", "units": {"MIC": "µg/mL"}}
{"smiles": "CCC(C)n1ncn(-c2ccc(N3CCN(c4ccc(OCC5COC(Cn6cncn6)(c6ccc(Cl)cc6Cl)O5)cc4)CC3)cc2)c1=O", "note": "(centres undefined) [ITRACONAZOLE]", "MIC": 32}
{"system": "Nakaseomyces glabratus", "test": "Antifungal activity against Candida glabrata isolated from neutropenic subjects with AML or MDS receiving posaconazole by broth microdilution method", "type": "functional", "details": "not given", "units": {"MIC50": "µg/mL", "MIC90": "µg/mL"}}
{"smiles": "CCC(C)n1ncn(-c2ccc(N3CCN(c4ccc(OCC5COC(Cn6cncn6)(c6ccc(Cl)cc6Cl)O5)cc4)CC3)cc2)c1=O", "note": "(centres undefined) [ITRACONAZOLE]", "MIC50": 0.5, "MIC90": 8}
{"system": "Nakaseomyces glabratus", "test": "Antifungal activity against Candida glabrata isolated from neutropenic subject 1491 with AML or MDS pharynx receiving antifungal drug after 23 days prophylaxis by broth microdilution method", "type": "functional", "details": "552 h", "units": {"MIC": "µg/mL"}}
{"smiles": "CCC(C)n1ncn(-c2ccc(N3CCN(c4ccc(OCC5COC(Cn6cncn6)(c6ccc(Cl)cc6Cl)O5)cc4)CC3)cc2)c1=O", "note": "(centres undefined) [ITRACONAZOLE]", "MIC": 8}
{"system": "Nakaseomyces glabratus", "test": "Antifungal activity against Candida glabrata isolated from HSCT recipient 474 with acute or chronic GVHD mouth receiving antifungal drug after 124 days prophylaxis by broth microdilution method", "type": "functional", "details": "not given", "units": {"MIC": "µg/mL"}}
{"smiles": "CCC(C)n1ncn(-c2ccc(N3CCN(c4ccc(OCC5COC(Cn6cncn6)(c6ccc(Cl)cc6Cl)O5)cc4)CC3)cc2)c1=O", "note": "(centres undefined) [ITRACONAZOLE]", "MIC": 8}
{"system": "Nakaseomyces glabratus", "test": "Antifungal activity against Candida glabrata isolated from HSCT recipient 186 with acute or chronic GVHD mouth receiving antifungal drug after 112 days prophylaxis by broth microdilution method", "type": "functional", "details": "not given", "units": {"MIC": "µg/mL"}}
{"smiles": "CCC(C)n1ncn(-c2ccc(N3CCN(c4ccc(OCC5COC(Cn6cncn6)(c6ccc(Cl)cc6Cl)O5)cc4)CC3)cc2)c1=O", "note": "(centres undefined) [ITRACONAZOLE]", "MIC": 2}
{"system": "Nakaseomyces glabratus", "test": "Antifungal activity against Candida glabrata isolated from neutropenic subject 1491 with AML or MDS pharynx after 23 days prophylaxis by broth microdilution method", "type": "functional", "details": "552 h", "units": {"MIC": "µg/mL"}}
{"smiles": "CCC(C)n1ncn(-c2ccc(N3CCN(c4ccc(OCC5COC(Cn6cncn6)(c6ccc(Cl)cc6Cl)O5)cc4)CC3)cc2)c1=O", "note": "(centres undefined) [ITRACONAZOLE]", "MIC": 1}
{"system": "Nakaseomyces glabratus", "test": "Antifungal activity against Candida glabrata isolated from HSCT recipient 807 with acute or chronic GVHD mouth after 114 days prophylaxis by broth microdilution method", "type": "functional", "details": "not given", "units": {"MIC": "µg/mL"}}
{"smiles": "CCC(C)n1ncn(-c2ccc(N3CCN(c4ccc(OCC5COC(Cn6cncn6)(c6ccc(Cl)cc6Cl)O5)cc4)CC3)cc2)c1=O", "note": "(centres undefined) [ITRACONAZOLE]", "MIC": 0.5}
{"system": "Candida albicans", "test": "Antifungal activity against Candida albicans isolated from HSCT recipients with acute or chronic GVHD receiving fluconazole assessed as maximum MIC by broth microdilution method", "type": "functional", "details": "not given", "units": {"MIC": "µg/mL"}}
{"smiles": "CCC(C)n1ncn(-c2ccc(N3CCN(c4ccc(OCC5COC(Cn6cncn6)(c6ccc(Cl)cc6Cl)O5)cc4)CC3)cc2)c1=O", "note": "(centres undefined) [ITRACONAZOLE]", "MIC": 16}
{"system": "Candida albicans", "test": "Antifungal activity against Candida albicans isolated from HSCT recipient 042 with acute or chronic GVHD mouth receiving antifungal drug after 112 days prophylaxis by broth microdilution method", "type": "functional", "details": "not given", "units": {"MIC": "µg/mL"}}
{"smiles": "CCC(C)n1ncn(-c2ccc(N3CCN(c4ccc(OCC5COC(Cn6cncn6)(c6ccc(Cl)cc6Cl)O5)cc4)CC3)cc2)c1=O", "note": "(centres undefined) [ITRACONAZOLE]", "MIC": 0.06}
{"system": "Pichia kudriavzevii", "test": "Antifungal activity against Candida krusei isolated from HSCT recipients with acute or chronic GVHD receiving fluconazole by broth microdilution method", "type": "functional", "details": "not given", "units": {"MIC50": "µg/mL", "MIC90": "µg/mL"}}
{"smiles": "CCC(C)n1ncn(-c2ccc(N3CCN(c4ccc(OCC5COC(Cn6cncn6)(c6ccc(Cl)cc6Cl)O5)cc4)CC3)cc2)c1=O", "note": "(centres undefined) [ITRACONAZOLE]", "MIC50": 0.5, "MIC90": 16}
{"system": "Pichia kudriavzevii", "test": "Antifungal activity against 6 days cultured Candida krusei isolated from neutropenic subject with AML or MDS pharynx receiving antifungal therapy for 19 days after 6 days of prophylaxis by broth microdilution method", "type": "functional", "details": "not given", "units": {"MIC": "µg/mL"}}
{"smiles": "CCC(C)n1ncn(-c2ccc(N3CCN(c4ccc(OCC5COC(Cn6cncn6)(c6ccc(Cl)cc6Cl)O5)cc4)CC3)cc2)c1=O", "note": "(centres undefined) [ITRACONAZOLE]", "MIC": 0.5}
{"system": "Nakaseomyces glabratus", "test": "Antifungal activity against Candida glabrata isolated from HSCT recipient 491 with acute or chronic GVHD mouth receiving antifungal drug after 112 days prophylaxis by broth microdilution method", "type": "functional", "details": "not given", "units": {"MIC": "µg/mL"}}
{"smiles": "CCC(C)n1ncn(-c2ccc(N3CCN(c4ccc(OCC5COC(Cn6cncn6)(c6ccc(Cl)cc6Cl)O5)cc4)CC3)cc2)c1=O", "note": "(centres undefined) [ITRACONAZOLE]", "MIC": 2}
{"system": "Nakaseomyces glabratus", "test": "Antifungal activity against Candida glabrata isolated from HSCT recipient 270 with acute or chronic GVHD mouth receiving antifungal drug after 108 days prophylaxis by broth microdilution method", "type": "functional", "details": "not given", "units": {"MIC": "µg/mL"}}
{"smiles": "CCC(C)n1ncn(-c2ccc(N3CCN(c4ccc(OCC5COC(Cn6cncn6)(c6ccc(Cl)cc6Cl)O5)cc4)CC3)cc2)c1=O", "note": "(centres undefined) [ITRACONAZOLE]", "MIC": 1}
{"system": "Nakaseomyces glabratus", "test": "Antifungal activity against 7 days cultured Candida glabrata isolated from neutropenic subject with AML or MDS stool receiving antifungal therapy for 37 days after 9 days of prophylaxis by broth microdilution method", "type": "functional", "details": "not given", "units": {"MIC": "µg/mL"}}
{"smiles": "CCC(C)n1ncn(-c2ccc(N3CCN(c4ccc(OCC5COC(Cn6cncn6)(c6ccc(Cl)cc6Cl)O5)cc4)CC3)cc2)c1=O", "note": "(centres undefined) [ITRACONAZOLE]", "MIC": 1}
{"system": "Candida albicans", "test": "Antifungal activity against Candida albicans isolated from neutropenic subjects with AML or MDS receiving fluconazole by broth microdilution method", "type": "functional", "details": "not given", "units": {"MIC50": "µg/mL", "MIC90": "µg/mL"}}
{"smiles": "CCC(C)n1ncn(-c2ccc(N3CCN(c4ccc(OCC5COC(Cn6cncn6)(c6ccc(Cl)cc6Cl)O5)cc4)CC3)cc2)c1=O", "note": "(centres undefined) [ITRACONAZOLE]", "MIC50": 0.015, "MIC90": 0.015}
{"system": "Nakaseomyces glabratus", "test": "Antifungal activity against 35 days cultured Candida glabrata isolated from HSCT recipient with acute or chronic GVHD mouth receiving antifungal therapy for 165 days after 138 days of prophylaxis by broth microdilution method", "type": "functional", "details": "not given", "units": {"MIC": "µg/mL"}}
{"smiles": "CCC(C)n1ncn(-c2ccc(N3CCN(c4ccc(OCC5COC(Cn6cncn6)(c6ccc(Cl)cc6Cl)O5)cc4)CC3)cc2)c1=O", "note": "(centres undefined) [ITRACONAZOLE]", "MIC": 8}
{"system": "Nakaseomyces glabratus", "test": "Antifungal activity against Candida glabrata isolated from HSCT recipient 975 with acute or chronic GVHD mouth receiving antifungal drug after 112 days prophylaxis by broth microdilution method", "type": "functional", "details": "not given", "units": {"MIC": "µg/mL"}}
{"smiles": "CCC(C)n1ncn(-c2ccc(N3CCN(c4ccc(OCC5COC(Cn6cncn6)(c6ccc(Cl)cc6Cl)O5)cc4)CC3)cc2)c1=O", "note": "(centres undefined) [ITRACONAZOLE]", "MIC": 8}
{"system": "Nakaseomyces glabratus", "test": "Antifungal activity against Candida glabrata isolated from HSCT recipient 497 with acute or chronic GVHD mouth after 114 days prophylaxis by broth microdilution method", "type": "functional", "details": "not given", "units": {"MIC": "µg/mL"}}
{"smiles": "CCC(C)n1ncn(-c2ccc(N3CCN(c4ccc(OCC5COC(Cn6cncn6)(c6ccc(Cl)cc6Cl)O5)cc4)CC3)cc2)c1=O", "note": "(centres undefined) [ITRACONAZOLE]", "MIC": 1}
{"system": "Nakaseomyces glabratus", "test": "Antifungal activity against -2 days cultured Candida glabrata isolated from HSCT recipient with acute or chronic GVHD mouth receiving antifungal therapy for 168 days after 113 days of prophylaxis by broth microdilution method", "type": "functional", "details": "not given", "units": {"MIC": "µg/mL"}}
{"smiles": "CCC(C)n1ncn(-c2ccc(N3CCN(c4ccc(OCC5COC(Cn6cncn6)(c6ccc(Cl)cc6Cl)O5)cc4)CC3)cc2)c1=O", "note": "(centres undefined) [ITRACONAZOLE]", "MIC": 1}
{"system": "Candida albicans", "test": "Antifungal activity against Candida albicans isolated from HSCT recipient 462 with acute or chronic GVHD mouth receiving antifungal drug after 112 days prophylaxis by broth microdilution method", "type": "functional", "details": "not given", "units": {"MIC": "µg/mL"}}
{"smiles": "CCC(C)n1ncn(-c2ccc(N3CCN(c4ccc(OCC5COC(Cn6cncn6)(c6ccc(Cl)cc6Cl)O5)cc4)CC3)cc2)c1=O", "note": "(centres undefined) [ITRACONAZOLE]", "MIC": 0.03}
